5 molecules from ChEMBL document CHEMBL1130445, “The synthesis of CD-ring modified 1,25-dihydroxy vitamin D analogues: Six-membered D-ring analogues I” (1997) can be followed below.

Where only a bound is given, the exact number is not on record here.

In one test the test system is HL-60. The test is described as follows: Biological evaluation in vitro on HL-60 cell line. The test is classed as functional, Homo sapiens. The arrangement: reference not given here.
For the next test, the system named is Keratinocyte. The test is described as follows: Biological evaluation in vitro on keratinocytes. The test is classed as functional. The arrangement: reference not given here.
A further test deals with MG-63. The test is described as follows: Biological evaluation in vitro on MG-63 cell line. In kind it is functional, Homo sapiens. The arrangement: reference not given here.
A further test concerns MCF7. Kind of test: Biological evaluation in vitro on MCF-7 cell line. In kind it is functional, Homo sapiens. The arrangement: reference not given here.
Another test has as its system Mus musculus. The test is described as follows: The in vivo effect was tested in vitamin D-deplete normal NMRI mice by measuring calcium levels in serum. In kind it is functional. The arrangement: reference not given here.
In test [1] the target is T1, Vitamin D3 receptor (Sus scrofa) (UniProt A3RGC1).
T1 sequence (whole entry): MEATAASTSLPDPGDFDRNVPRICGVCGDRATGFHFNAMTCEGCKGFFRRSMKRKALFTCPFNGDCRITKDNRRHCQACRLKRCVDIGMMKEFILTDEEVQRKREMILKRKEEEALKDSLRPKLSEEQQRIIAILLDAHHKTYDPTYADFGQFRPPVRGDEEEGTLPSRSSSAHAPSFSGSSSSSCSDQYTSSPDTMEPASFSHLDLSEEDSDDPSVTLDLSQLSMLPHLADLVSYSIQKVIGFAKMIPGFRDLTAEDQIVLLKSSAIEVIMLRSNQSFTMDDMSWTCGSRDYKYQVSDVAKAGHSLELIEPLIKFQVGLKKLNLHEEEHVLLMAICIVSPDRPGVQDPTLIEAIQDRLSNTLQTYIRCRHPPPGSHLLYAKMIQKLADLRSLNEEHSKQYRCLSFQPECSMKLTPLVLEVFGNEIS
The test is described as follows: Inhibition of 1-alpha,25(OH)2 D3 binding to pig intestinal mucosa Vitamin D3 receptor (VDR). In kind it is tissue-based.

Consider `C=C1C(=CC=C[C@H]2CCC[C@H]([C@H](C)CCCCC(O)(CC)CC)C2(C)C)C[C@@H](O)C[C@@H]1O`, for which the Biological evaluation was determined as 600 in the test with HL-60; 1500 in the test with Keratinocyte; 800 in the test with MG-63; 3000 in the test with MCF7; 20 with Mus musculus. Moreover, in test [1], the Relative affinity came out at 60.
On to `C=C1C(=CC=C[C@H]2CCC[C@H]([C@@H](C)CCCC(C)(C)O)C2(C)C)C[C@@H](O)C[C@@H]1O`, for which the Biological evaluation with HL-60 is reported as 1; with Keratinocyte, 8; in the test with MG-63, 1; with MCF7, 0; in the test on Mus musculus it was under 0.1. The molecule further yielded a Relative affinity in test [1] of 0.9.
In the case of `C=C1C(=CC=C[C@@H]2CCC[C@H]([C@@H](C)CCCC(C)(C)O)C2(C)C)C[C@@H](O)C[C@@H]1O`, the Biological evaluation with HL-60 was found to be 1; in the test with Keratinocyte it was 8; in the test on MG-63, 1; in the test with MCF7, 0; in the test on Mus musculus, 0.1. For the same molecule, in test [1], the Relative affinity stood at 0.5.
Regarding `C=C1C(=CC=C[C@H]2CCC[C@H]([C@H](C)CCCC(C)(C)O)C2(C)C)C[C@@H](O)C[C@@H]1O`, the Biological evaluation in the test on HL-60 is 2; in the test with Keratinocyte it was 30; in the test with MG-63 it was 3; in the test with MCF7, 1; in the test with Mus musculus, under 0.1. For the same molecule, the Relative affinity in test [1] amounted to 1.
Take `C=C1C(=CC=C[C@@H]2CCC[C@H]([C@H](C)CCCC(C)(C)O)C2(C)C)C[C@@H](O)C[C@@H]1O`: the Biological evaluation in the test with HL-60 turned out to be 90; in the test with Keratinocyte, 300; in the test on MG-63, 300; in the test with MCF7, 300; with Mus musculus, 4. The same molecule displayed a Relative affinity in test [1] of 125.
